A word on the IC50: it is the concentration that inhibits the measured activity by half. Low values mean greater potency, high ones weaker potency.

purified human, His-tagged PRC2 complex, sequence (O75530 whole entry): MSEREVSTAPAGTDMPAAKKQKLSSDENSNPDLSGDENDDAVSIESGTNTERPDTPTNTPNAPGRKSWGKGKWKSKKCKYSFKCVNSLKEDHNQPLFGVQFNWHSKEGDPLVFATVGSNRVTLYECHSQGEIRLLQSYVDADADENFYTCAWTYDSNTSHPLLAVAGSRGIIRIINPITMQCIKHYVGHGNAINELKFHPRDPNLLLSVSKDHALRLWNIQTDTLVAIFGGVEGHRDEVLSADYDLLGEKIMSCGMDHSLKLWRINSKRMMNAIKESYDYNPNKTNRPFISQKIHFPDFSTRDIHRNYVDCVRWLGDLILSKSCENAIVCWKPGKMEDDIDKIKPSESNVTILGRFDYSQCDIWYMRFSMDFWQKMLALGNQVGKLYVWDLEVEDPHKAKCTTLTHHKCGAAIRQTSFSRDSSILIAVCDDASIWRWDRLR
purified human, His-tagged PRC2 complex, sequence (Q15910 whole entry partner): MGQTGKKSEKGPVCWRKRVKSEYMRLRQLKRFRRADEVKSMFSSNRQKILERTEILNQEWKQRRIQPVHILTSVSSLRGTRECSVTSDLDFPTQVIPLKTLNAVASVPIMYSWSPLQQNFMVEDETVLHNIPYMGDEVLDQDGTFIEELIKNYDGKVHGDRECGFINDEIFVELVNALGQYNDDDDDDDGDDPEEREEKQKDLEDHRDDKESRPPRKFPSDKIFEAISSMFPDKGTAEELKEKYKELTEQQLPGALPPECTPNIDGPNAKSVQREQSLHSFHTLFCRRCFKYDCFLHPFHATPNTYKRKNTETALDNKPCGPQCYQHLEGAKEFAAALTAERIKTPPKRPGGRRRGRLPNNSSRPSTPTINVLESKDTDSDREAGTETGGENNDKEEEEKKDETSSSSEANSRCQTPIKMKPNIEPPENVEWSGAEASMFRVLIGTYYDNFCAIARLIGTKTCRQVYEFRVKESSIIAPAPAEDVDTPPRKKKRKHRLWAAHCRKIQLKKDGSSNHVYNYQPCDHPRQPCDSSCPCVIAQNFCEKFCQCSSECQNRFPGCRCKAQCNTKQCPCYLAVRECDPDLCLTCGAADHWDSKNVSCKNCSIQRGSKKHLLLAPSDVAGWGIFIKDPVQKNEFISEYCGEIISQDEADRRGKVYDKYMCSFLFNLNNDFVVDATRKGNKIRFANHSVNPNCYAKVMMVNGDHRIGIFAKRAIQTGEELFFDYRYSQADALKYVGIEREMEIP
purified human, His-tagged PRC2 complex, sequence (Q15022 whole entry partner): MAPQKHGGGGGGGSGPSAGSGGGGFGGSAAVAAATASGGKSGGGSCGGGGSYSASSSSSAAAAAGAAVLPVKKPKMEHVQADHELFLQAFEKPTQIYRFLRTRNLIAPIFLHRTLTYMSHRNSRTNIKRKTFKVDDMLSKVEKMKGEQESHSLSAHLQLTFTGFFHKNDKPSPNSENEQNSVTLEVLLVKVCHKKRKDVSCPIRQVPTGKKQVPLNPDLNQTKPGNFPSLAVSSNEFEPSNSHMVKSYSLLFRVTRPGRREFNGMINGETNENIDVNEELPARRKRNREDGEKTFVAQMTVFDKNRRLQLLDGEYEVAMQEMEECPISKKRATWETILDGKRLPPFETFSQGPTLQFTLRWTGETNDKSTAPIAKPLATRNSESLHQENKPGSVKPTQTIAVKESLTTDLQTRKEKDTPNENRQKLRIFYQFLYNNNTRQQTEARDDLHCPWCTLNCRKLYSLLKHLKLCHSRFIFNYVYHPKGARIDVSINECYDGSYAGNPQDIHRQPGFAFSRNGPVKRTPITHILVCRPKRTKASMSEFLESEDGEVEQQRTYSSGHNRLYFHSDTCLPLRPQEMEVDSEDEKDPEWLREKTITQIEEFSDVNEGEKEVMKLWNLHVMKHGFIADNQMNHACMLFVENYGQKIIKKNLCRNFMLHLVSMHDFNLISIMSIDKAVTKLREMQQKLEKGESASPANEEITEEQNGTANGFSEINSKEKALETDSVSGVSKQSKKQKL
purified human, His-tagged PRC2 complex, sequence (Q6ZN18 whole entry partner): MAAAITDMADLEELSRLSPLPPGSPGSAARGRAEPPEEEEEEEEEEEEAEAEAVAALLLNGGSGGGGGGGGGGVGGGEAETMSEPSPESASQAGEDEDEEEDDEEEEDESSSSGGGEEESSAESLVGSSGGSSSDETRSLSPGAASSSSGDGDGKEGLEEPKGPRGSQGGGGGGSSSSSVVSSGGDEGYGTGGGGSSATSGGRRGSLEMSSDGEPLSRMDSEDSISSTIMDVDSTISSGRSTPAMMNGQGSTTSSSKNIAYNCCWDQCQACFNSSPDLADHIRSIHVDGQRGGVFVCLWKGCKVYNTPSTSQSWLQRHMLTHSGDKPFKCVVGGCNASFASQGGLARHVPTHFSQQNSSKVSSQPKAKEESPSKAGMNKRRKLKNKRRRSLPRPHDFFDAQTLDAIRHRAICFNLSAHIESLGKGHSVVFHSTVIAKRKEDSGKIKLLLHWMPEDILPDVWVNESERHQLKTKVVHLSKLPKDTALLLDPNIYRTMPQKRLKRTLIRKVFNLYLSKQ
purified human, His-tagged PRC2 complex, sequence (Q09028 whole entry partner): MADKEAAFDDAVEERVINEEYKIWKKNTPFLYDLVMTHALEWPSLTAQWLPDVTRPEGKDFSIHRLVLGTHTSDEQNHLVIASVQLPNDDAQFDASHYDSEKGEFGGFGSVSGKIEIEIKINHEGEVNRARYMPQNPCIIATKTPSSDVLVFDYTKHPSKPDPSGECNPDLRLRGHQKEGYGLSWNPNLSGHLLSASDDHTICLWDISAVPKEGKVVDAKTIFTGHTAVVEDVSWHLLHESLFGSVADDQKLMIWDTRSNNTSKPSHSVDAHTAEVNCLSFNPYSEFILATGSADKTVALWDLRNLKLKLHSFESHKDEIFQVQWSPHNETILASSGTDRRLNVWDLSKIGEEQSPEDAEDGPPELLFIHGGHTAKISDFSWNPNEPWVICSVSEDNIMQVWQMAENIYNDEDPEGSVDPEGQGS

For this experiment, the target named is purified human, His-tagged PRC2 complex (Homo sapiens (Human), UniProt O75530). Description: Hot Spot HMT assay, inhibition of PRC2 enzymatic activity. In kind it is biochemical. Particulars: 10 nM PRC2 complex, 1 μM 3H-SAM, core histone H3, 10-point dose-response. Summed up:
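Methyl transfer from 1 μM tritiated SAM onto 0.05 mg/ml core histone H3, catalysed by 10 nM His/Flag-tagged human PRC2 holoenzyme, was run 1 hr at 30° C after a 20 min compound preincubation. Serial dilutions began at 1.0 μM; product captured on filters and counted.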
`CN(C)CCc1cccc(-c2cnc(NCc3c(F)ccc4c3CCO4)n3cc(C#N)nc23)c1` [Example 217, 8-(3-(2-(dimethylamino)ethyl)phenyl)-5-(((5-fluoro-2,3-dihydrobenzofuran-4-yl)methyl)amino)imidazo[1,2-c]pyrimidine-2-carbonitrile] returned a half-inhibitory concentration (IC50) of less than 100 nM.
`Cc1nn(C(C)C)cc1-c1cnc(NCc2c(F)ccc3c2CCO3)n2cc(C(=O)O)nc12` [Example 5, 5-(((5-fluoro-2,3-dihydrobenzofuran-4-yl)methyl)amino)-8-(1-isopropyl-3-methyl-1H-pyrazol-4-yl)imidazo[1,2-c]pyrimidine-2-carboxylic acid] displayed an IC50 of less than 100 nM.
The result for `N#Cc1cn2c(NCc3c(F)ccc4c3CCO4)ncc(-c3ccc(N4CCCCC4)nc3)c2n1` [Example 135, 5-(((5-fluoro-2,3-dihydrobenzofuran-4-yl)methyl)amino)-8-(6-(piperidin-1-yl)pyridin-3-yl)imidazo[1,2-c]pyrimidine-2-carbonitrile] reads less than 100 nM; that for `[2H]C([2H])(c1ccc(-c2cnc(NCc3c(F)ccc4c3CCO4)n3cc(C#N)nc23)c(C)c1)N(C)C` [Example 173, 8-(4-((dimethylamino)methyl-d2)-2-methylphenyl)-5-(((5-fluoro-2,3-dihydrobenzofuran-4-yl)methyl)amino)imidazo[1,2-c]pyrimidine-2-carbonitrile], less than 100 nM.
The result for `Cc1cc(C(=O)N(C)C)ccc1-c1cnc(NCc2c(F)ccc3c2CCO3)n2cc(C#N)nc12` [Example 44, 4-(2-cyano-5-(((5-fluoro-2,3-dihydrobenzofuran-4-yl)methyl)amino)imidazo[1,2-c]pyrimidin-8-yl)-N,N,3-trimethylbenzamide] reads less than 100 nM.
As for `N#Cc1cn2c(NCc3c(F)ccc4c3CCO4)ncc(-c3ccc(S(N)(=O)=O)cc3)c2n1` [Example 47, 4-(2-cyano-5-(((5-fluoro-2,3-dihydrobenzofuran-4-yl)methyl)amino)imidazo[1,2-c]pyrimidin-8-yl)benzenesulfonamide], the IC50 is less than 100 nM.
In the case of `CN(C)C1(c2ccc(-c3cnc(NCc4c(F)ccc5c4CCO5)n4cc(C#N)nc34)cc2)CC1` [Example 171, 8-(4-(1-(dimethylamino)cyclopropyl)phenyl)-5-(((5-fluoro-2,3-dihydrobenzofuran-4-yl)methyl)amino)imidazo[1,2-c]pyrimidine-2-carbonitrile] it was less than 100 nM; in that of `Cc1nc(N2CCN(C)CC2)ccc1-c1cnc(NCc2c(F)ccc3c2CCO3)n2cc(C(N)=O)nc12` [Example 138, 5-(((5-fluoro-2,3-dihydrobenzofuran-4-yl)methyl)amino)-8-(2-methyl-6-(4-methylpiperazin-1-yl)pyridin-3-yl)imidazo[1,2-c]pyrimidine-2-carboxamide], less than 100 nM; in that of `N#Cc1cn2c(NCc3c(F)ccc4c3CCO4)ncc(-c3cnn(CCO)c3)c2n1` [Example 182, 5-(((5-fluoro-2,3-dihydrobenzofuran-4-yl)methyl)amino)-8-(1-(2-hydroxyethyl)-1H-pyrazol-4-yl)imidazo[1,2-c]pyrimidine-2-carbonitrile], 100 to 500 nM.
In the case of `COC1CCN(Cc2ccc(-c3cnc(NCc4c(F)ccc5c4CCO5)n4cc(C#N)nc34)cc2)C1` (centres unmarked) [Example 53, 5-(((5-fluoro-2,3-dihydrobenzofuran-4-yl)methyl)amino)-8-(4-((3-methoxypyrrolidin-1-yl)methyl)phenyl)imidazo[1,2-c]pyrimidine-2-carbonitrile] it was less than 100 nM.
In the case of `COc1ccc(-c2cnc(NCc3c(F)ccc4c3CCO4)n3cc(C#N)nc23)cn1` [Example 94, 5-(((5-fluoro-2,3-dihydrobenzofuran-4-yl)methyl)amino)-8-(6-methoxypyridin-3-yl)imidazo[1,2-c]pyrimidine-2-carbonitrile] it was less than 100 nM; in that of `Cc1nc(N2CCN(C)CC2)ccc1-c1cnc(NCc2c(F)ccc3c2CCO3)n2cc(C#N)nc12` [Example 136, 5-(((5-fluoro-2,3-dihydrobenzofuran-4-yl)methyl)amino)-8-(2-methyl-6-(4-methylpiperazin-1-yl)pyridin-3-yl)imidazo[1,2-c]pyrimidine-2-carbonitrile], 100 to 500 nM; in that of `CN(C)Cc1ccc(-c2cnc(NCc3c(F)ccc4c3CCO4)n3cc(C#N)nc23)c(Cl)c1` [Example 33, 8-(2-chloro-4-((dimethylamino)methyl)phenyl)-5-(((5-fluoro-2,3-dihydrobenzofuran-4-yl)methyl)amino)imidazo[1,2-c]pyrimidine-2-carbonitrile], less than 100 nM.
For `N#Cc1cn2c(NCc3c(F)ccc4c3CCO4)ncc(-c3ccccc3C#N)c2n1` [Example 187, 8-(2-cyanophenyl)-5-(((5-fluoro-2,3-dihydrobenzofuran-4-yl)methyl)amino)imidazo[1,2-c]pyrimidine-2-carbonitrile], the IC50 was less than 100 nM.
For `Cc1ncc(-c2cnc(NCc3c(F)ccc4c3CCO4)n3cc(C#N)nc23)c(C)n1` [Example 71, 8-(2,4-dimethylpyrimidin-5-yl)-5-(((5-fluoro-2,3-dihydrobenzofuran-4-yl)methyl)amino)imidazo[1,2-c]pyrimidine-2-carbonitrile], the concentration for half-maximal inhibition (IC50) is less than 100 nM.
`CC(C)(O)Cn1cc(-c2cnc(NCc3c(F)ccc4c3CCO4)n3cc(C#N)nc23)cn1` [Example 121, 5-(((5-fluoro-2,3-dihydrobenzofuran-4-yl)methyl)amino)-8-(1-(2-hydroxy-2-methylpropyl)-1H-pyrazol-4-yl)imidazo[1,2-c]pyrimidine-2-carbonitrile] gave an IC50 of less than 100 nM.
For the compound `CN(C)CCCn1cc(-c2cnc(NCc3c(F)ccc4c3CCO4)n3cc(C#N)nc23)cn1` [Example 103, 8-(1-(3-(dimethylamino)propyl)-1H-pyrazol-4-yl)-5-(((5-fluoro-2,3-dihydrobenzofuran-4-yl)methyl)amino)imidazo[1,2-c]pyrimidine-2-carbonitrile], the half-inhibitory concentration (IC50) lay in the range of 100 to 500 nM.
In the case of `CNCc1ccc(-c2cnc(NCc3c(F)ccc4c3CCO4)n3cc(C#N)nc23)c(C)c1` [Example 196, 5-(((5-fluoro-2,3-dihydrobenzofuran-4-yl)methyl)amino)-8-(2-methyl-4-((methylamino)methyl)phenyl)imidazo[1,2-c]pyrimidine-2-carbonitrile] it was 100 to 500 nM; in that of `N#Cc1cn2c(NCc3c(F)ccc4c3CCO4)ncc(-c3ccccn3)c2n1` [Example 146, 5-(((5-fluoro-2,3-dihydrobenzofuran-4-yl)methyl)amino)-8-(pyridin-2-yl)imidazo[1,2-c]pyrimidine-2-carbonitrile], 100 to 500 nM.
Compound `Cc1cc(-c2cnc(NCc3cccc4c3CCO4)n3cc(C(N)=O)nc23)n(C)n1` [Example 19, 5-(((2,3-dihydrobenzofuran-4-yl)methyl)amino)-8-(1,3-dimethyl-1H-pyrazol-5-yl)imidazo[1,2-c]pyrimidine-2-carboxamide] returned an IC50 of less than 100 nM.
The result for `N#Cc1cn2c(NCc3c(F)ccc4c3CCO4)ncc(-c3ccc([C@@H]4CCCN4)cc3)c2n1` [Example 219, (S)-5-(((5-fluoro-2,3-dihydrobenzofuran-4-yl)methyl)amino)-8-(4-(pyrrolidin-2-yl)phenyl)imidazo[1,2-c]pyrimidine-2-carbonitrile] reads less than 100 nM.
In the case of `CC(C)Oc1ccc(-c2cnc(NCc3c(F)ccc4c3CCO4)n3cc(C#N)nc23)cn1` [Example 133, 5-(((5-fluoro-2,3-dihydrobenzofuran-4-yl)methyl)amino)-8-(6-isopropoxypyridin-3-yl)imidazo[1,2-c]pyrimidine-2-carbonitrile] it was less than 100 nM; in that of `Cc1nc(C2CC2)ncc1-c1cnc(NCc2c(F)ccc3c2CCO3)n2cc(C(N)=O)nc12` [Example 15, 8-(2-cyclopropyl-4-methylpyrimidin-5-yl)-5-(((5-fluoro-2,3-dihydrobenzofuran-4-yl)methyl)amino)imidazo[1,2-c]pyrimidine-2-carboxamide], 100 to 500 nM; in that of `Cn1nccc(-c2cnc(NCc3c(F)ccc4c3CCO4)n3cc(C#N)nc23)c1=O` [Example 194, 5-(((5-fluoro-2,3-dihydrobenzofuran-4-yl)methyl)amino)-8-(2-methyl-3-oxo-2,3-dihydropyridazin-4-yl)imidazo[1,2-c]pyrimidine-2-carbonitrile], 100 to 500 nM.
Take `N#Cc1cn2c(NCc3c(F)ccc4c3CCO4)ncc(-c3cnn(CC4CCOC4)c3)c2n1` (centres unmarked) [Example 154, 5-(((5-fluoro-2,3-dihydrobenzofuran-4-yl)methyl)amino)-8-(1-((tetrahydrofuran-3-yl)methyl)-1H-pyrazol-4-yl)imidazo[1,2-c]pyrimidine-2-carbonitrile]: the 50% inhibitory concentration (IC50) was 100 to 500 nM.
In turn, `N#Cc1cn2c(NCc3c(F)ccc4c3CCO4)ncc(-c3ccncn3)c2n1` [Example 57, 5-(((5-fluoro-2,3-dihydrobenzofuran-4-yl)methyl)amino)-8-(pyrimidin-4-yl)imidazo[1,2-c]pyrimidine-2-carbonitrile] returned a concentration for half-maximal inhibition (IC50) of less than 100 nM.
The result for `CN(C)C(=O)c1cc(-c2cnc(NCc3c(F)ccc4c3CCO4)n3cc(C#N)nc23)n(C)n1` [Example 170, 5-(2-cyano-5-(((5-fluoro-2,3-dihydrobenzofuran-4-yl)methyl)amino)imidazo[1,2-c]pyrimidin-8-yl)-N,N,1-trimethyl-1H-pyrazole-3-carboxamide] reads less than 100 nM.
The compound `Cc1cc(-c2cnc(NCc3c(F)ccc4occc34)n3cc(C(=O)O)nc23)n(C)n1` [Example 9, 8-(1,3-dimethyl-1H-pyrazol-5-yl)-5-(((5-fluorobenzofuran-4-yl)methyl)amino)imidazo[1,2-c]pyrimidine-2-carboxylic acid] yielded a concentration for half-maximal inhibition (IC50) of less than 100 nM.
For the compound `N#Cc1cn2c(NCc3c(F)ccc4c3CCO4)ncc(-c3cnn(C4CCCCO4)c3)c2n1` (centres unmarked) [Example 118, 5-(((5-fluoro-2,3-dihydrobenzofuran-4-yl)methyl)amino)-8-(1-(tetrahydro-2H-pyran-2-yl)-1H-pyrazol-4-yl)imidazo[1,2-c]pyrimidine-2-carbonitrile], the IC50 was less than 100 nM.

Values taken from patent publication US20240398811A1, “PRC2 INHIBITORS FOR USE IN TREATING BLOOD DISORDERS” (ORIC Pharmaceuticals, Inc., priority 2021, published 2024).
